We go through five compounds from patent US20110166079A1, “METHODS OF TREATING CANCER WITH APOE PEPTIDES” (COGNOSCI, INC., priority 2008, published 2011).

Like-named read-outs stand apart in the source and are kept apart here. Non-standard residues stand in square brackets, D forms with d. Residues, ends and D or L forms follow the SMILES beside them. No end group written: not given here. Arg(NO2) = N=C(NCCC[C@H](N)C(=O)O)N[N+](=O)[O-]; Aib = CC(C)(N)C(=O)O

The test system of one data set is NFκB. The experiment in a line: NFκB nuclear translocation in LPS-stimulated BV2 microglial cells (gel shift). It counts as cell-based, mouse. The settings on record: nuclear extracts, FIG. 2B. As for the experimental part: In the dephosphorylated state, IκB binds to the transcription factor NFκB and prevents it from translocating to the nucleus to activate transcription of pro-survival proteins. […] A radiolabeled oligonucelotide containing a NFκB binding site was added to the proteins from the nuclear extracts and the proteins were subsequently separated by non-denaturing polyacrylamide gel electrophoresis. The amount of NFκB present in the nuclear extracts was detected by autoradiography (FIG. 2B). Nuclear NFκB was reduced in the presence of COG133 providing further evidence that this signal transduction cascade is suppressed in cells treated with ApoE peptides.

The test system of a further data set is IκB. Description: LPS-induced phosphorylation of IκB in BV2 microglia (Western blot). Particulars: 100 ng/mL LPS, 5 μM COG133, FIG. 2A. It is filed as cell-based, mouse. The procedure: To determine whether COG peptides modulated the PI-3 kinase/Akt pathway and subsequent activation of NFκB, the phosphorylation state of proteins in the pathway was analyzed in cells exposed to bacteria or a bacterial antigen (lipopolysaccharide) in the absence and presence of COG peptides. In a first series of experiments, mouse BV2 microglia in six well plates were incubated with 100 ng/mL of LPS alone or in the presence of 5 μM COG133 (SEQ ID NO: 1) peptide. Cells were lysed and a clarified extract prepared by centrifugation. Polyacrylamide gels were loaded with 30 μg of extract per lane and run in SDS buffer. […] Membranes were then probed with an anit-phospho-IκBα antibody. Membranes were developed with Enhanced Chemiluminescence substrates (GE healthcare) and visualized by exposure to film. Membranes were then stripped and reprobed for total IκB using a non phospho-specific anti-IκBα antibody. A duplicate blot was probed with anti-GAPDH antibodies.

The subject of a further data set is B-CLL cells. Description: Cytotoxicity on B-CLL cells from CLL patients (MTS assay). The settings on record: for Fold Change: EC50 relative to COG056 control. The procedure:
To determine whether COG peptides could counteract the overactivation of the Akt/NFkB pathway in B-CLL cells and effectively induce apoptosis, cytotoxicity testing was performed on freshly isolated B-CLL cells from CLL patients with COG peptides. Blood from CLL patients was collected and CD5+/CD19+ CLL cells were isolated using the RosetteSep™ Human B Cell Enrichment Cocktail. This method depletes whole blood of T cells, monocytes, and NK cells using a proprietary antibody cocktail containing anti-CD14, anti-CD2 and anti-CD16 antibodies to remove T cells, monocytes, and NK cells, respectively. The antibody cocktail crosslinks unwanted cells in human whole blood to multiple red blood cells forming immunorosettes thereby increasing the density of the rosetted cells, such that they pellet along with the free RBCs when centrifuged over a buoyant density medium such as Ficoll-Paque®. The highly enriched B-cell or B-CLL cells are left at the interface between Ficoll and the plasma.
COG peptides were applied to the isolated B-CLL cells (0.25×10^6 cells/well in a 96 well plate) for 72 hours, after which viable cells were assessed using the MTS assay ([…]).
Additional B-CLL cells and peripheral blood mononuclear cells (PBMC; i.e., normal B cells) were isolated from leukemia patients and normal volunteers, respectively, and were treated with a range of COG112 concentrations.

The subject of another data set is microglial cells. The settings on record: relative to COG133, microglial cells; cited from earlier work.
The next data set concerns the target T1, PP2A (Mus musculus, UniProt P63330).
T1 construct: cells were lysed and PP2A was immunoprecipitated by adding an antibody targeted to the catalytic C-subunit of PP2A; endogenous in cells; host or cells: mouse macrophagic RAW cells
Description: PP2A activity in RAW cells (immunoprecipitation / phosphate release). It is filed as cell-based. The settings on record: 30 minutes, 2 μM COG112, 10 nM okadaic acid, FIG. 3. As for the experimental part: Mouse macrophagic RAW cells were incubated with either 2 μM COG112 (SEQ ID NO: 2), 10 nM okadaic acid (an inhibitor of PP2A), or okadaic acid and COG112. After 30 minutes, cells were lysed and PP2A was immunoprecipitated by adding an antibody targeted to the catalytic C-subunit of PP2A. Half of the immunoprecipitate was separated by SDS-PAGE, blotted on to nitrocellulose, and probed with an anti-PP2AC antibody. The remaining portion was assayed for activity by adding 125 μL assay cocktail containing a phospho-threonine substrate peptide to the immunoprecipitated enzyme. After incubating at 37° C. with shaking, a 25 μL aliquot was removed and added to an ammonium molybdate solution (Upstate) that chelates free phosphate and changes color upon chelate formation. Aliquots were removed at various time intervals and the amount of free phosphate released from the peptide was determined by comparison to a phosphate standard curve. The rate of phosphate release was determined by linear fit to the time course data and was normalized to the relative PP2A concentration. […] PP2A activity was reduced in the presence of okadaic acid alone as expected. […] Thus, the active pool of PP2A in a cell can be regulated by ApoE peptides.

The mark [1] stands for this setting: B-CLL cells, 72 hours, MTS assay.

T1 sequence (P63330 whole entry): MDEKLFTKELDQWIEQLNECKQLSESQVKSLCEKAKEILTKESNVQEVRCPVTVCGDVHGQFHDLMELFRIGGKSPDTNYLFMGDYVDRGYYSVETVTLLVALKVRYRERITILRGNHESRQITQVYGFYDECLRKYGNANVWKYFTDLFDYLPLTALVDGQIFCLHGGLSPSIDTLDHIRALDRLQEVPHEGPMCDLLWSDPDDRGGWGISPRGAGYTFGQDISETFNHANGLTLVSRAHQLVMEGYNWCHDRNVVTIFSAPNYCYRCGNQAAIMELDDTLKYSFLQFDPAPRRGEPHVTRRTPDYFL

`CC(=O)N[C@@H](CC(C)C)C(=O)N[C@@H](CCCNC(=N)N)C(=O)N[C@H](C(=O)N[C@@H](CCCNC(=N)N)C(=O)N[C@@H](CC(C)C)C(=O)N[C@@H](C)C(=O)N[C@@H](CO)C(=O)N[C@@H](Cc1c[nH]cn1)C(=O)N[C@@H](CC(C)C)C(=O)N[C@@H](CCCNC(=N)N)C(=O)N[C@@H](CCCCN)C(=O)N[C@@H](CC(C)C)C(=O)N[C@@H](CCCNC(=N)N)C(=O)N[C@@H](CCCCN)C(=O)N[C@@H](CCCNC(=N)N)C(=O)N[C@@H](CC(C)C)C(=O)N[C@@H](CC(C)C)C(N)=O)C(C)C` [COG133]: the “nuclear NFκB” value in the data set on NFκB is on record as “reduced”. The “LPS-induced phosphorylation of IκB” value in the data set on IκB is given as “reduces”. For the same compound, the “cytotoxic activity compared in words” value in the data set with B-CLL cells (setting [1]) was “slightly improved activity relative to the COG056”. Besides, in the data set on B-CLL cells, the “Fold Change” value worked out at 2.9.
As to `CC(C)C[C@H](NC(=O)[C@H](CC(C)C)NC(=O)[C@H](CCCNC(=N)N)NC(=O)[C@H](CCCCN)NC(=O)[C@H](CCCNC(=N)N[N+](=O)[O-])NC(=O)[C@H](CC(C)C)NC(=O)[C@H](CCCNC(=N)N)NC(=O)[C@H](CCCCN)NC(=O)[C@H](CC(C)C)NC(=O)C(C)(C)NC(=O)[C@H](CO)NC(=O)[C@H](C)NC(=O)[C@H](CC(C)C)NC(=O)[C@H](CCCNC(=N)N)NC(=O)[C@@H](NC(=O)[C@H](CCCNC(=N)N)NC(=O)[C@@H](N)CC(C)C)C(C)C)C(=O)O` [COG248, LRVRLAS(Aib)LKRL(nitroR)KRLL] (H-LRVRLAS[Aib]LKRL[Arg(NO2)]KRLL-OH), the “cytotoxic activity compared in words” value with B-CLL cells (setting [1]) is given as “enhanced activity compared to COG133”. In the data set on B-CLL cells, the “Fold Change” value came out at 5.5.
Turning to “LLRKRLKRLHSALRVRL [COG056, reference compound]”, in the data set on B-CLL cells, the “Fold Change” value came to 1.0. In the data set on B-CLL cells (human, 72 hours), the concentration for a half-maximal effect (EC50) turned out to be 12.9 ± 4.6 µM.
For the compound `CC(=O)N[C@@H](C)C(=O)N[C@@H](CO)C(=O)NC(C)(C)C(=O)N[C@@H](CC(C)C)C(=O)N[C@@H](CCCNC(=N)N)C(=O)N[C@@H](CCCCN)C(=O)N[C@@H](CC(C)C)C(=O)NC(C)(C)C(=O)N[C@@H](CCCCN)C(=O)N[C@@H](CCCNC(=N)N)C(=O)N[C@@H](CC(C)C)C(=O)N[C@@H](CC(C)C)C(N)=O` [COG1410, Ac-AS-Aib-LRKL-Aib-KRLL-NH2] (Ac-AS[Aib]LRKL[Aib]KRLL-NH2), in the data set with B-CLL cells, the “cytotoxic activity compared in words” value is reported as “no difference in potency” and the “Fold Change” value turned out to be 2.3. In addition, the EC50 in the data set with B-CLL cells (read-out: EC50 (cytotoxicity of COG compounds on B-CLL cells), isolated B-CLL cells, 72 hours, MTS assay) was 5.7 ± 3 µM. For the same compound, in the data set with microglial cells, the “potency for suppressing NO production” value is “improved potency”.
Take `C=C1[C@@H](O)[C@@H]2O[C@]3(CC[C@H](/C=C/[C@@H](C)[C@@H]4CC(C)=C[C@@]5(O[C@H](C[C@@](C)(O)C(=O)O)CC[C@H]5O)O4)O3)CC[C@H]2O[C@@H]1[C@@H](O)C[C@H](C)[C@H]1O[C@@]2(CCCCO2)CC[C@H]1C` [okadaic acid, reference compound]: the “PP2A activity (rate of phosphate release)” value at PP2A is “reduced”.
